Measured values from PubChem BioAssay AID1259407 (Chemical Carcinogenesis Research Information System (CCRIS), 2018).
Calls of active or inactive are those of the source. How the calls were made is not given here.

Tested on: CCRIS mutagenicity, Ames/micronucleus/aberration tests
Assay: CCRIS mutagenicity studies
[1] = Test System: AMES SALMONELLA TYPHIMURIUM, Strain/Indicator: TA100, Metabolic Activation: NONE, Method: STANDARD PLATE

Question: For CN1CCCC1=O, which mutagenic call (Test System: AMES SALMONELLA TYPHIMURIUM, Strain/Indicator: TA97, Metabolic Activation: NONE, Method: STANDARD PLATE) is on record?
Answer: inactive; negative

Question: And the mutagenic call (Test System: AMES SALMONELLA TYPHIMURIUM, Strain/Indicator: TA97, Metabolic Activation: RAT, LIVER, S-9, AROCLOR 1254, Method: STANDARD PLATE)?
Answer: inactive; negative

Question: What about the mutagenic call (Test System: AMES SALMONELLA TYPHIMURIUM, Strain/Indicator: TA98, Metabolic Activation: NONE, Method: PREINCUBATION) of the same compound?
Answer: inactive; negative

Question: And the mutagenic call (Test System: AMES SALMONELLA TYPHIMURIUM, Strain/Indicator: TA98, Metabolic Activation: NONE, Method: STANDARD PLATE)?
Answer: inactive; negative

Question: What about the mutagenic call (Test System: AMES SALMONELLA TYPHIMURIUM, Strain/Indicator: TA98, Metabolic Activation: RAT, LIVER, S-9, AROCLOR 1254, Method: PREINCUBATION) of the same compound?
Answer: inactive; negative

Question: What about the mutagenic call (Test System: AMES SALMONELLA TYPHIMURIUM, Strain/Indicator: TA98, Metabolic Activation: RAT, LIVER, S-9, AROCLOR 1254, Method: STANDARD PLATE) of the same compound?
Answer: inactive; negative

Question: And the mutagenic call [1]?
Answer: inactive; negative

Question: And the mutagenic call (Test System: AMES SALMONELLA TYPHIMURIUM, Strain/Indicator: TA100, Metabolic Activation: RAT, LIVER, S-9, AROCLOR 1254, Method: STANDARD PLATE)?
Answer: inactive; negative

Question: And the mutagenic call (Test System: AMES SALMONELLA TYPHIMURIUM, Strain/Indicator: TA102, Metabolic Activation: NONE, Method: STANDARD PLATE)?
Answer: inactive; negative

Question: And the mutagenic call (Test System: AMES SALMONELLA TYPHIMURIUM, Strain/Indicator: TA102, Metabolic Activation: RAT, LIVER, S-9, AROCLOR 1254, Method: STANDARD PLATE)?
Answer: inactive; negative

Question: And the mutagenic call (Test System: AMES SALMONELLA TYPHIMURIUM, Strain/Indicator: TA104, Metabolic Activation: NONE, Method: PREINCUBATION)?
Answer: inactive; negative

Question: And the mutagenic call (Test System: AMES SALMONELLA TYPHIMURIUM, Strain/Indicator: TA104, Metabolic Activation: NONE, Method: STANDARD PLATE)?
Answer: inactive; negative

Question: What about the mutagenic call (Test System: AMES SALMONELLA TYPHIMURIUM, Strain/Indicator: TA104, Metabolic Activation: RAT, LIVER, S-9, AROCLOR 1254, Method: PREINCUBATION) of the same compound?
Answer: inactive; negative

Question: And the mutagenic call (Test System: AMES SALMONELLA TYPHIMURIUM, Strain/Indicator: TA104, Metabolic Activation: RAT, LIVER, S-9, AROCLOR 1254, Method: STANDARD PLATE)?
Answer: inactive; negative

Question: And the mutagenic call (Test System: AMES SALMONELLA TYPHIMURIUM, Strain/Indicator: TA2638, Metabolic Activation: NONE, Method: STANDARD PLATE)?
Answer: inactive; negative

Question: And the mutagenic call (Test System: AMES SALMONELLA TYPHIMURIUM, Strain/Indicator: TA2638, Metabolic Activation: RAT, LIVER, S-9, AROCLOR 1254, Method: STANDARD PLATE)?
Answer: inactive; negative

Question: What about the mutagenic call (Test System: AMES SALMONELLA TYPHIMURIUM, Strain/Indicator: UTH8413, Metabolic Activation: NONE, Method: STANDARD PLATE) of the same compound?
Answer: inactive; negative

Question: What about the mutagenic call (Test System: AMES SALMONELLA TYPHIMURIUM, Strain/Indicator: UTH8413, Metabolic Activation: RAT, LIVER, S-9, AROCLOR 1254, Method: STANDARD PLATE) of the same compound?
Answer: inactive; negative

Question: And the mutagenic call (Test System: AMES SALMONELLA TYPHIMURIUM, Strain/Indicator: UTH8414, Metabolic Activation: NONE, Method: STANDARD PLATE)?
Answer: inactive; negative

Question: What about the mutagenic call (Test System: AMES SALMONELLA TYPHIMURIUM, Strain/Indicator: UTH8414, Metabolic Activation: RAT, LIVER, S-9, AROCLOR 1254, Method: STANDARD PLATE) of the same compound?
Answer: inactive; negative

Question: Which results are given for CCCCN1C2c3ccccc3-c3ccccc3C21 (stereo not drawn)?
Answer: mutagenic call [1]: active; positive; mutagenic call (Test System: CHINESE HAMSTER V-79, Strain/Indicator: V-79/6-THIOGUANINE, Metabolic Activation: NONE, Method: STANDARD PLATE): inactive; negative

Question: Which mutagenic call (Test System: Mouse lymphoma cells, Strain/Indicator: L5178Y ( tk+/tk-), Metabolic Activation: Human, Liver, S-9, Method: Suspension/plate) does the source give for COC1=CC(=O)O[C@@H](CCc2ccc3c(c2)OCO3)C1 here?
Answer: inactive; negative

Question: What does the source list for BrCC(Br)c1ccccc1 (stereo not drawn)?
Answer: mutagenic call (Test System: AMES SALMONELLA TYPHIMURIUM, Strain/Indicator: TA100/NG-57, Metabolic Activation: CELL PRETREATMENT WITH GLUTATHIONE, Method: PREINCUBATION): active; positive; mutagenic call (Test System: AMES SALMONELLA TYPHIMURIUM, Strain/Indicator: TA100/NG-57, Metabolic Activation: NONE, Method: PREINCUBATION): active; positive; mutagenic call (Test System: AMES SALMONELLA TYPHIMURIUM, Strain/Indicator: TA100, Metabolic Activation: CELL PRETREATMENT WITH GLUTATHIONE, Method: PREINCUBATION): active; positive; mutagenic call (Test System: AMES SALMONELLA TYPHIMURIUM, Strain/Indicator: TA100, Metabolic Activation: NONE, Method: PREINCUBATION): active; positive; mutagenic call (Test System: AMES SALMONELLA TYPHIMURIUM, Strain/Indicator: TA100, Metabolic Activation: NONE, Method: SPOT TEST): active; positive
